How the values were obtained:
Type in all cases: in vivo
[1] = system: Humulus scandens; assay: Herbicidal activity test for indoor post-emergence spraying on stems and leaves; design: key: grade level by weed remaining vs blank control, e.g. 5 = 10.1-15%; conditions: 150 g a.i./ha, visual inspection 21 days after treatment
Experimental: (§1) The post-emergence herbicidal activity test was performed with some of the N-benzylbenzamide-based compounds of general formula I or II with reference to the method of NY/T 1155.4-2006. […] After the sowing, the weed was moved to a greenhouse for regular cultivation. […] Then, the results were investigated by visual inspection 21 days after the treatments. […] Level 5: equivalent to 10.1 to 15% of the weed in the blank control area; Level 6: equivalent to 15.1 to 25% of the weed in the blank control area; Level 7: equivalent to 25.1 to 35% of the weed in the blank control area; Level 8: equivalent to 35.1 to 67.5% of the weed in the blank control area; and […]

[2] = system: Piemarker; assay: as above; design: key: grade level by weed remaining vs blank control, e.g. 5 = 10.1-15%; conditions: 150 g a.i./ha, visual inspection 21 days after treatment
Experimental: as §1

[3] = system: Digitaria sanguinalis; assay: as above; design: key: grade level by weed remaining vs blank control, e.g. 5 = 10.1-15%; conditions: 150 g a.i./ha, visual inspection 21 days after treatment
Experimental: as §1

[4] = system: Amaranthus retroflexus; assay: as above; design: key: grade level by weed remaining vs blank control, e.g. 5 = 10.1-15%; conditions: 150 g a.i./ha, visual inspection 21 days after treatment
Experimental: as §1

[5] = system: Barnyard grass; assay: as above; design: key: grade level by weed remaining vs blank control, e.g. 5 = 10.1-15%; conditions: 150 g a.i./ha, visual inspection 21 days after treatment
Experimental: as §1

[6] = system: green bristlegrass; assay: as above; design: key: grade level by weed remaining vs blank control, e.g. 5 = 10.1-15%; conditions: 150 g a.i./ha, visual inspection 21 days after treatment
Experimental: as §1

[7] = system: Piemarker; assay: Herbicidal activity test for indoor pre-emergence soil treatment; design: key: level 1-9; higher = more weed remaining vs blank control; conditions: 150 g a.i./ha, visual inspection 21 days after treatment
How it was run: (§2)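 Pre-emergence soil spray per NY/T 1155.3-2006: weed seeds sown in moistened neutral sandy loam (organic content ≤2%), covered with 0.5–2.0 cm soil, then sprayed 24 h later with a water-diluted 10% emulsifiable concentrate at 150 g(a.i.)/ha. Visual rating after 21 days on a 1–9 scale.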

[8] = system: Barnyard grass; assay: as above; design: key: level 1-9; higher = more weed remaining vs blank control; conditions: 150 g a.i./ha, visual inspection 21 days after treatment
How it was run: as §2

[9] = system: green bristlegrass; assay: as above; design: key: level 1-9; higher = more weed remaining vs blank control; conditions: 150 g a.i./ha, visual inspection 21 days after treatment
How it was run: as §2

[10] = system: Digitaria sanguinalis; assay: as above; design: key: 1-9 levels; higher = more weed remaining vs blank control; conditions: 150 g a.i./ha, visual inspection 21 days after treatment
How it was run: as §2

[11] = system: Amaranthus retroflexus; assay: as above; design: key: 1-9 levels; higher = more weed remaining vs blank control; conditions: 150 g a.i./ha, visual inspection 21 days after treatment
How it was run: as §2

[12] = system: Portulaca oleracea; assay: Field test for weed control in a corn field; conditions: for Post-emergence weed control effect, Portulaca oleracea: 150 g a.i./ha, after treatment
Experimental: (§3) The weed control efficacy field test was performed in a corn field with some of the N-benzylbenzamide-based compounds of general formula I or II with reference to the method of GB/T 17980.42-2000. […] Spray treatments were performed in the stage where 2 leaves to 5 leaves were grown for the corns after the sowing. Representative compounds in the examples were used to prepare emulsifiable concentrates (10%), and spray treatments were performed with the concentrates in water at a dosage of 150 g(a.i.)/ha, and repeated 4 times for each treatment, and the area was 20 m^2. Oil dispersion with 25% of mesotrione was used as a control agent and applied at a dosage of 150 g(a.i.)/h. […] The herbicidal activities of the agents were evaluated on a scale of 1-9 levels according to the symptoms and severity of damage to the test weeds.
(§4) Level 2: equivalent to 0 to 2.5% of the weed in the blank control area;
(§5) Level 3: equivalent to 2.6 to 5% of the weed in the blank control area;
(§6) Level 4: equivalent to 5.1 to 10% of the weed in the blank control area;
(§7) Level 5: equivalent to 10.1 to 15% of the weed in the blank control area;
(§8) Level 6: equivalent to 15.1 to 25% of the weed in the blank control area;
(§9) Level 7: equivalent to 25.1 to 35% of the weed in the blank control area;
(§10) Level 8: equivalent to 35.1 to 67.5% of the weed in the blank control area; and
(§11) Level 9: equivalent to 67.6 to 100% of the weed in the blank control area.

[13] = system: Solanum nigrum; assay: Field test for weed control in a corn field; conditions: for Post-emergence weed control effect, Solanum nigrum: 150 g a.i./ha, 30 days after treatment
Experimental: as §3, §4, §5, §6, §7, §8, §9, §10, §11

[14] = system: Convolvulus arvensis; assay: Field test for weed control in a corn field; conditions: for Post-emergence weed control effect, Convolvulus arvensis: 150 g a.i./ha, after treatment
Experimental: as §3, §4, §5, §6, §7, §8, §9, §10, §11

[15] = system: Acalypha australis; assay: Field test for weed control in a corn field; conditions: for Post-emergence weed control effect, Acalypha australis: 150 g a.i./ha, after treatment
Experimental: as §3, §4, §5, §6, §7, §8, §9, §10, §11

[16] = system: Chenopodium album; assay: Field test for weed control in a corn field; conditions: for Post-emergence weed control effect, Chenopodium album: 150 g a.i./ha, after treatment
Experimental: as §3, §4, §5, §6, §7, §8, §9, §10, §11

[17] = system: Digitaria sanguinalis; assay: Field test for weed control in a corn field; conditions: for Post-emergence weed control effect, Digitaria sanguinalis: 150 g a.i./ha, after treatment
Experimental: as §3, §4, §5, §6, §7, §8, §9, §10, §11

[18] = system: Amaranthus retroflexus; assay: Field test for weed control in a corn field; conditions: for Post-emergence weed control effect, Amaranthus retroflexus: 150 g a.i./ha, 30 days after treatment
Experimental: as §3, §4, §5, §6, §7, §8, §9, §10, §11

[19] = system: nutgrass flatsedge; assay: Field test for weed control in a corn field; conditions: for Post-emergence weed control effect, Nutgrass flatsedge: 150 g a.i./ha, after treatment
Experimental: as §3, §4, §5, §6, §7, §8, §9, §10, §11

[20] = system: Barnyard grass; assay: Field test for weed control in a corn field; conditions: for Post-emergence weed control effect, Barnyard grass: 150 g a.i./ha, 30 days after treatment
Experimental: as §3, §4, §5, §6, §7, §8, §9, §10, §11

[21] = system: green bristlegrass; assay: Field test for weed control in a corn field; conditions: for Post-emergence weed control effect, Green bristlegrass: 150 g a.i./ha, after treatment
Experimental: as §3, §4, §5, §6, §7, §8, §9, §10, §11

[22] = system: goosegrass; assay: Field test for weed control in a corn field; conditions: for Post-emergence weed control effect, Goose grass: 150 g a.i./ha, after treatment
Experimental: as §3, §4, §5, §6, §7, §8, §9, §10, §11

[23] = system: Gramineae; assay: Post-emergence herbicidal activity test in a paddy field; design: key: level scale; higher level = more weed left vs blank control; conditions: 150 g a.i./ha (penoxsulam control 250 g(a.i.)/h)
How it was run: (§12)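 Efficacy was visually estimated 15 and 30 days after spraying, grading weed coverage relative to an untreated neighbouring plot (level 2 = 0 to 2.5%, level 9 = 67.6 to 100%). Treatments were 150 g(a.i.)/ha from 10% emulsifiable concentrates applied at the 4-5 leaf rice stage, four repeats of 50 m^2 each.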

[24] = system: Cyperaceae; assay: as above; design: key: level scale; higher level = more weed left vs blank control; conditions: 150 g a.i./ha (penoxsulam control 250 g(a.i.)/h)
How it was run: as §12

[25] = system: Broadleaf weed; assay: as above; design: key: level scale; higher level = more weed left vs blank control; conditions: 150 g a.i./ha (penoxsulam control 250 g(a.i.)/h)
How it was run: as §12

[26] = system: Humulus scandens; assay: Herbicidal activity test for indoor pre-emergence soil treatment; conditions: 150 g a.i./ha, visual inspection 21 days after treatment
How it was run: as §2

[27] = 150 g(a.i.)/ha, 21 days after treatments

SMILES	Herbicidal Activity Humulus scandens [1]	Herbicidal Activity Piemarker [2]	Herbicidal Activity Digitaria sanguinalis [3]	Herbicidal Activity Amaranthus retroflexus [4]	Herbicidal Activity Barnyard grass [5]	Herbicidal Activity Green bristlegrass [6]	Herbicidal Activity Piemarker [7]	Herbicidal Activity Barnyard grass [8]	Herbicidal Activity Green bristlegrass [9]	Herbicidal Activity Digitaria sanguinalis [10]	Herbicidal Activity Amaranthus retroflexus [11]	Post-emergence weed control effect, Portulaca oleracea [12]	Post-emergence weed control effect, Solanum nigrum [13]	Post-emergence weed control effect, Convolvulus arvensis [14]	Post-emergence weed control effect, Acalypha australis [15]	Post-emergence weed control effect, Chenopodium album [16]	Post-emergence weed control effect, Digitaria sanguinalis [17]	Post-emergence weed control effect, Amaranthus retroflexus [18]	Post-emergence weed control effect, Nutgrass flatsedge [19]	Post-emergence weed control effect, Barnyard grass [20]	also measured
COc1ccccc1C(=O)NCc1cccc(Cl)c1 [Compound A09, N-(3-chlorobenzyl)-2-methoxybenzamide]	1	1	1	1	1	2 (equivalent to 0 to 2.5% of the weed in the blank control area)	1	1	2 (equivalent to 0 to 2.5% of the weed in the blank control area)	2 (equivalent to 0 to 2.5% of the weed in the blank control area)	2 (equivalent to 0 to 2.5% of the weed in the blank control area)	1	2 (equivalent to 0 to 2.5% of the weed in the blank control area)	2 (equivalent to 0 to 2.5% of the weed in the blank control area)	2 (equivalent to 0 to 2.5% of the weed in the blank control area)	1	2 (equivalent to 0 to 2.5% of the weed in the blank control area)	1	2 (equivalent to 0 to 2.5% of the weed in the blank control area)	2 (equivalent to 0 to 2.5% of the weed in the blank control area)	Post-emergence weed control effect, Green bristlegrass [21]: 2 (equivalent to 0 to 2.5% of the weed in the blank control area); Post-emergence weed control effect, Goose grass [22]: 1; Herbicidal activity 15 days after treatment Gramineae [23]: 2 (equivalent to 0 to 2.5% of the weed in the blank control area); Herbicidal activity 30 days after treatment Gramineae [23]: 2 (equivalent to 0 to 2.5% of the weed in the blank control area); Herbicidal activity 15 days after treatment Cyperaceae [24]: 1; Herbicidal activity 30 days after treatment Cyperaceae [24]: 2 (equivalent to 0 to 2.5% of the weed in the blank control area); Herbicidal activity 15 days after treatment Broadleaf weed [25]: 2 (equivalent to 0 to 2.5% of the weed in the blank control area); Herbicidal activity 30 days after treatment Broadleaf weed [25]: 2 (equivalent to 0 to 2.5% of the weed in the blank control area); Herbicidal Activity Humulus scandens [26]: 3 (equivalent to 2.6 to 5% of the weed in the blank control area)
COc1ncccc1C(=O)NCc1cccc(Cl)c1 [Compound A92]	1	1	1	1	1	1	1	1	1	1	1	1	2 (equivalent to 0 to 2.5% of the weed in the blank control area)	1	2 (equivalent to 0 to 2.5% of the weed in the blank control area)	1	2 (equivalent to 0 to 2.5% of the weed in the blank control area)	1	2 (equivalent to 0 to 2.5% of the weed in the blank control area)	1	Post-emergence weed control effect, Green bristlegrass [21]: 2 (equivalent to 0 to 2.5% of the weed in the blank control area); Post-emergence weed control effect, Goose grass [22]: 1; Herbicidal activity 15 days after treatment Gramineae [23]: 2 (equivalent to 0 to 2.5% of the weed in the blank control area); Herbicidal activity 30 days after treatment Gramineae [23]: 2 (equivalent to 0 to 2.5% of the weed in the blank control area); Herbicidal activity 15 days after treatment Cyperaceae [24]: 1; Herbicidal activity 30 days after treatment Cyperaceae [24]: 1; Herbicidal activity 15 days after treatment Broadleaf weed [25]: 1; Herbicidal activity 30 days after treatment Broadleaf weed [25]: 1; Herbicidal Activity Humulus scandens [26]: 2 (equivalent to 0 to 2.5% of the weed in the blank control area)
Cc1cccc(C(=O)NCc2cc(F)cc(Cl)c2)n1 [Compound B27]	1	1	1	1	1	1	1	1	1	1	1	1	1	1	1	1	1	1	1	1	controlling effect on Portulaca oleracea [12, 27]: 1; controlling effect on Solanum nigrum [13, 27]: 1; controlling effect on Convolvulus arvensis [14, 27]: 1; controlling effect on Acalypha australis [15, 27]: 1; controlling effect on Chenopodium album [16, 27]: 1; controlling effect on Digitaria sanguinalis [17, 27]: 1; controlling effect on Amaranthus retroflexus [18, 27]: 1; controlling effect on nutgrass flatsedge [19, 27]: 1; controlling effect on barnyard grass [20, 27]: 1; Post-emergence weed control effect, Green bristlegrass [21]: 1; controlling effect on green bristlegrass [21, 27]: 1; Post-emergence weed control effect, Goose grass [22]: 1; controlling effect on goosegrass [22, 27]: 1; Herbicidal activity 15 days after treatment Gramineae [23]: 1; Herbicidal activity 30 days after treatment Gramineae [23]: 1; Herbicidal activity 15 days after treatment Cyperaceae [24]: 1; Herbicidal activity 30 days after treatment Cyperaceae [24]: 1; Herbicidal activity 15 days after treatment Broadleaf weed [25]: 1; Herbicidal activity 30 days after treatment Broadleaf weed [25]: 1; Herbicidal Activity Humulus scandens [26]: 1
